Source: ChEMBL document CHEMBL5137100, “N-Alkyl-2-Quinolonopyrones Demonstrate Antimicrobial Activity against ESKAPE Pathogens Including Staphylococcus aureus” (2022)
Converted amounts (≈) assume the structure as drawn.

Columns and labels:
Assay type in all cases: functional
Conditions in all cases: time 18-20 hrs
Staphylococcus aureus [1] = assay: Antibacterial activity against methicillin-sensitive Staphylococcus aureus GP-001 ATCC 25923 assessed as reduction in bacterial growth in CAMHB incubated for 18 to 20 hrs by broth dilution method
Staphylococcus aureus [2] = assay: Antibacterial activity against methicillin-resistant Staphylococcus aureus GP-020 ATCC 43300 assessed as reduction in bacterial growth in CAMHB incubated for 18 to 20 hrs by broth dilution method
Staphylococcus aureus [3] = assay: Antibacterial activity against methicillin-resistant Staphylococcus aureus GP-021 ATCC 33591 assessed as reduction in bacterial growth in CAMHB incubated for 18 to 20 hrs by broth dilution method
Staphylococcus aureus [4] = assay: Antibacterial activity against vancomycin intermediate and methicillin resistant Staphylococcus aureus GP-035 ATCC 700699 assessed as reduction in bacterial growth in CAMHB incubated for 18 to 20 hrs by broth dilution method
Staphylococcus aureus [5] = assay: Antibacterial activity against daptomycin and methicillin resistant Staphylococcus aureus GP-036 assessed as reduction in bacterial growth in CAMHB incubated for 18 to 20 hrs by broth dilution method
Enterococcus sp. [6] = assay: Antibacterial activity against Enterococcus sp. GP-024 ATCC 35667 assessed as reduction in bacterial growth in CAMHB incubated for 18 to 20 hrs by broth dilution method
Enterococcus sp. [7] = assay: Antibacterial activity against vancomycin resistant Enterococcus sp. GP-026 ATCC 700221 assessed as reduction in bacterial growth in CAMHB incubated for 18 to 20 hrs by broth dilution method
[8] = test system: Staphylococcus epidermidis; assay: Antibacterial activity against Staphylococcus epidermidis GP-017 ATCC 12228 assessed as reduction in bacterial growth in CAMHB incubated for 18 to 20 hrs by broth dilution method
[9] = test system: Staphylococcus epidermidis; assay: Antibacterial activity against Staphylococcus epidermidis GP-033 NRS 60 assessed as reduction in bacterial growth in CAMHB incubated for 18 to 20 hrs by broth dilution method

CCCCCCn1c(=O)c2c(O)cc(=O)oc2c2ccccc21
MIC80 (Staphylococcus aureus [1]): 16 µg/mL (≈ 51.1 µM)
MIC80 (Staphylococcus aureus [2]): 8 µg/mL (≈ 25.5 µM)
MIC80 (Staphylococcus aureus [3]): 16 µg/mL (≈ 51.1 µM)
MIC80 (Staphylococcus aureus [4]): 8 µg/mL (≈ 25.5 µM)
MIC80 (Staphylococcus aureus [5]): 8 µg/mL (≈ 25.5 µM)
MIC80 (Enterococcus sp. [6]): > 64 µg/mL
MIC80 (Enterococcus sp. [7]): 8 µg/mL (≈ 25.5 µM)
MIC80 [8]: 8 µg/mL (≈ 25.5 µM)
MIC80 [9]: 2 µg/mL (≈ 6.38 µM)

CCCCCCCn1c(=O)c2c(O)cc(=O)oc2c2cc(C)ccc21
MIC80 (Staphylococcus aureus [1]): > 128 µg/mL
MIC80 (Staphylococcus aureus [2]): 1 µg/mL (≈ 2.93 µM)
MIC80 (Staphylococcus aureus [3]): 64 µg/mL (≈ 187 µM)
MIC80 (Staphylococcus aureus [4]): > 128 µg/mL
MIC80 (Staphylococcus aureus [5]): > 128 µg/mL
MIC80 (Enterococcus sp. [6]): 128 µg/mL (≈ 375 µM)
MIC80 (Enterococcus sp. [7]): 32 µg/mL (≈ 93.7 µM)
MIC80 [8]: 16 µg/mL (≈ 46.9 µM)
MIC80 [9]: > 64 µg/mL

CCCCCCCn1c(=O)c2c(O)cc(=O)oc2c2cc(C(C)(C)C)ccc21
MIC80 (Staphylococcus aureus [1]): 2 µg/mL (≈ 5.22 µM)
MIC80 (Staphylococcus aureus [2]): 1 µg/mL (≈ 2.61 µM)
MIC80 (Staphylococcus aureus [3]): 2 µg/mL (≈ 5.22 µM)
MIC80 (Staphylococcus aureus [4]): 1 µg/mL (≈ 2.61 µM)
MIC80 (Staphylococcus aureus [5]): 1 µg/mL (≈ 2.61 µM)
MIC80 (Enterococcus sp. [6]): > 128 µg/mL
MIC80 (Enterococcus sp. [7]): 4 µg/mL (≈ 10.4 µM)
MIC80 [8]: 2 µg/mL (≈ 5.22 µM)
MIC80 [9]: 0.25 µg/mL (≈ 0.652 µM)

CCCCCCCn1c(=O)c2c(O)cc(=O)oc2c2cc(CCCCCC)ccc21
MIC80 (Staphylococcus aureus [1]): 256 µg/mL (≈ 622 µM)
MIC80 (Staphylococcus aureus [2]): 256 µg/mL (≈ 622 µM)
MIC80 (Staphylococcus aureus [3]): > 256 µg/mL

CCCCCCCCCCn1c(=O)c2c(O)cc(=O)oc2c2ccccc21
MIC80 (Staphylococcus aureus [1]): > 64 µg/mL
MIC80 (Staphylococcus aureus [2]): 4 µg/mL (≈ 10.8 µM)
MIC80 (Staphylococcus aureus [3]): > 64 µg/mL
MIC80 (Staphylococcus aureus [4]): > 64 µg/mL
MIC80 (Staphylococcus aureus [5]): > 64 µg/mL
MIC80 (Enterococcus sp. [6]): > 64 µg/mL
MIC80 (Enterococcus sp. [7]): 0.5 µg/mL (≈ 1.35 µM)
MIC80 [8]: 4 µg/mL (≈ 10.8 µM)
MIC80 [9]: > 64 µg/mL

CCCCCCCn1c(=O)c2c(O)cc(=O)oc2c2cc(F)ccc21
MIC80 (Staphylococcus aureus [1]): 8 µg/mL (≈ 23.2 µM)
MIC80 (Staphylococcus aureus [2]): 2 µg/mL (≈ 5.79 µM)
MIC80 (Staphylococcus aureus [3]): 4 µg/mL (≈ 11.6 µM)
MIC80 (Staphylococcus aureus [4]): 4 µg/mL (≈ 11.6 µM)
MIC80 (Staphylococcus aureus [5]): 2 µg/mL (≈ 5.79 µM)
MIC80 (Enterococcus sp. [6]): > 64 µg/mL
MIC80 (Enterococcus sp. [7]): 32 µg/mL (≈ 92.7 µM)
MIC80 [8]: 4 µg/mL (≈ 11.6 µM)
MIC80 [9]: 8 µg/mL (≈ 23.2 µM)

CCCCCCCn1c(=O)c2c(O)cc(=O)oc2c2cc(OC)ccc21
MIC80 (Staphylococcus aureus [1]): 8 µg/mL (≈ 22.4 µM)
MIC80 (Staphylococcus aureus [2]): ≤ 8 µg/mL
MIC80 (Staphylococcus aureus [3]): ≤ 8 µg/mL

CCCCCCCn1c(=O)c2c(O)cc(=O)oc2c2c(C)cc(C)cc21
MIC80 (Staphylococcus aureus [1]): > 256 µg/mL
MIC80 (Staphylococcus aureus [2]): > 256 µg/mL
MIC80 (Staphylococcus aureus [3]): > 256 µg/mL

CCCCCCCn1c(=O)c2c(O)cc(=O)oc2c2ccccc21
MIC80 (Staphylococcus aureus [1]): 8 µg/mL (≈ 24.4 µM)
MIC80 (Staphylococcus aureus [2]): 4 µg/mL (≈ 12.2 µM)
MIC80 (Staphylococcus aureus [3]): 8 µg/mL (≈ 24.4 µM)
MIC80 (Staphylococcus aureus [4]): 8 µg/mL (≈ 24.4 µM)
MIC80 (Staphylococcus aureus [5]): 4 µg/mL (≈ 12.2 µM)
MIC80 (Enterococcus sp. [6]): > 128 µg/mL
MIC80 (Enterococcus sp. [7]): 16 µg/mL (≈ 48.9 µM)
MIC80 [8]: 4 µg/mL (≈ 12.2 µM)
MIC80 [9]: 4 µg/mL (≈ 12.2 µM)

CCCCCCCn1c(=O)c2c(O)cc(=O)oc2c2cc(Cl)ccc21
MIC80 (Staphylococcus aureus [1]): 8 µg/mL (≈ 22.1 µM)
MIC80 (Staphylococcus aureus [2]): 1 µg/mL (≈ 2.76 µM)
MIC80 (Staphylococcus aureus [3]): > 128 µg/mL
MIC80 (Staphylococcus aureus [4]): 128 µg/mL (≈ 354 µM)
MIC80 (Staphylococcus aureus [5]): 1 µg/mL (≈ 2.76 µM)
MIC80 (Enterococcus sp. [6]): > 128 µg/mL
MIC80 (Enterococcus sp. [7]): 64 µg/mL (≈ 177 µM)
MIC80 [8]: 1 µg/mL (≈ 2.76 µM)
MIC80 [9]: 8 µg/mL (≈ 22.1 µM)

CCCCCCCCn1c(=O)c2c(O)cc(=O)oc2c2ccccc21
MIC80 (Staphylococcus aureus [1]): 8 µg/mL (≈ 23.4 µM)
MIC80 (Staphylococcus aureus [2]): 2 µg/mL (≈ 5.86 µM)
MIC80 (Staphylococcus aureus [3]): 4 µg/mL (≈ 11.7 µM)
MIC80 (Staphylococcus aureus [4]): 4 µg/mL (≈ 11.7 µM)
MIC80 (Staphylococcus aureus [5]): 4 µg/mL (≈ 11.7 µM)
MIC80 (Enterococcus sp. [6]): > 128 µg/mL
MIC80 (Enterococcus sp. [7]): 1 µg/mL (≈ 2.93 µM)
MIC80 [8]: 4 µg/mL (≈ 11.7 µM)
MIC80 [9]: 1 µg/mL (≈ 2.93 µM)

CCCCCCCCCn1c(=O)c2c(O)cc(=O)oc2c2ccccc21
MIC80 (Staphylococcus aureus [1]): 4 µg/mL (≈ 11.3 µM)
MIC80 (Staphylococcus aureus [2]): 2 µg/mL (≈ 5.63 µM)
MIC80 (Staphylococcus aureus [3]): 2 µg/mL (≈ 5.63 µM)
MIC80 (Staphylococcus aureus [4]): 2 µg/mL (≈ 5.63 µM)
MIC80 (Staphylococcus aureus [5]): 1 µg/mL (≈ 2.81 µM)
MIC80 (Enterococcus sp. [6]): > 4 µg/mL
MIC80 (Enterococcus sp. [7]): 4 µg/mL (≈ 11.3 µM)
MIC80 [8]: 2 µg/mL (≈ 5.63 µM)
MIC80 [9]: 2 µg/mL (≈ 5.63 µM)
